“Also recorded” adds a separate entry of the source.
System: TLR7/8 agonist R848-stimulated monocytes
Assay: Ex-vivo R848-stimulated healthy monocytes, RNA-seq of HS-overexpressed proinflammatory transcripts
Type: cell-based, human
Conditions: healthy donor monocytes (N=3), 500 nM overnight, then R848, RNA-seq at 2 hours

Compound: Cn1c(=O)n(C2CCC(=O)NC2=O)c2cccc(C#CCOC3CCN(C[C@H]4CC[C@H](n5cc(NC(=O)c6cnn7ccc(N8C[C@H]9C[C@@H]8CO9)nc67)c(C(F)F)n5)CC4)CC3)c21 (stereo partly shown) [Degrader 2]
- effect on TLR-mediated (R848) induction of HS-overexpressed proinflammatory transcripts: inhibits TLR-mediated induction of HS-overexpressed proinflammatory transcripts; also recorded: inhibits TLR-stimulated upregulation of HS-overexpressed inflammatory genes
